Assay results reported in ChEMBL document CHEMBL4312022, “Design, synthesis, and biological evaluation of ligustrazine - betulin amino-acid/dipeptide derivatives as anti-tumor agents” (Eur J Med Chem, 2020).
Calls of active or inactive are those of the source. The rule behind the calls is not given here.

Legend:
HeLa = test: Antiproliferative activity against human HeLa cells assessed as reduction in cell viability after 72 hrs by MTT assay; type: functional, cell-based
HepG2 [1] = test: Antiproliferative activity against human HepG2 cells assessed as reduction in cell viability after 72 hrs by MTT assay; type: functional, cell-based; conditions: HepG2, 72 h
BGC-823 = test: Antiproliferative activity against human BGC823 cells assessed as reduction in cell viability after 72 hrs by MTT assay; type: functional, cell-based; conditions: BGC-823, 72 h
HT-29 = test: Antiproliferative activity against human HT-29 cells assessed as reduction in cell viability after 72 hrs by MTT assay; type: functional, cell-based; conditions: HT-29, 72 h
MDCK = test: Cytotoxicity against MDCK cells assessed as reduction in cell viability after 72 hrs by MTT assay; type: cell-based; conditions: Canis lupus familiaris
[2] = Selectivity index, ratio of IC50 for MDCK cells to IC50 for human HepG2 cells
[3] = Toxicity in zebrafish embryos assessed as mortality rate at 4 uM after 72 hrs (reference value: 3.33 +/- 4.71%); set-up: species or system Danio rerio; conditions: in vivo
[4] = Toxicity in zebrafish embryos assessed as malformation rate at 4 uM after 72 hrs (reference value: 0%); set-up: species or system Danio rerio; conditions: in vivo
[5] = Toxicity in zebrafish embryos assessed as body length at 4 uM after 72 hrs (reference value: 4165.80 +/- 64.98 micrometer); set-up: species or system Danio rerio; conditions: in vivo
[6] = Toxicity in zebrafish embryos assessed as effect on morphological changes at 4 uM after 72 hrs; set-up: species or system Danio rerio; conditions: in vivo
[7] = Toxicity in zebrafish embryos assessed as spinal cord bending at 4 uM after 72 hrs; set-up: species or system Danio rerio; conditions: in vivo
HepG2 [8] = test: Induction of morphological changes in human HepG2 cells assessed as cell fragmentation at 8 uM after 72 hrs by giemsa staining based inverted microscopic analysis; type: functional
HepG2 [9] = test: Induction of morphological changes in human HepG2 cells assessed as cell pyknosis at 8 uM after 72 hrs by giemsa staining based inverted microscopic analysis; type: functional
HepG2 [10] = test: Induction of apoptosis in human HepG2 cells assessed as reduction in number of normal cell morphology at 2 to 8 uM after 72 hrs by giemsa staining based inverted microscopic analysis; type: functional
HepG2 [11] = test: Induction of apoptosis in human HepG2 cells assessed as concentrated chromatin at 2 to 8 uM after 72 hrs by DAPI-staining based fluorescence microscopic analysis; type: functional, cell-based
HepG2 [12] = test: Induction of apoptosis in human HepG2 cells assessed as nuclear fragmentation at 2 to 8 uM after 72 hrs by DAPI-staining based fluorescence microscopic analysis; type: functional, cell-based
HepG2 [13] = test: Induction of apoptosis in human HepG2 cells assessed as reduction in number of cells up to 8 uM after 72 hrs by DAPI-staining based fluorescence microscopic analysis; type: functional, cell-based
HepG2 [14] = test: Induction of apoptosis in human HepG2 cells assessed as increase in cell disruption up to 8 uM after 72 hrs by DAPI-staining based fluorescence microscopic analysis; type: functional
HepG2 [15] = test: Induction of apoptosis in human HepG2 cells assessed as late apoptotic cells at 4 uM after 24 hrs by AnnexinV-FITC/PI-staining based flow cytometry (reference value: 4.5%); type: functional
HepG2 [16] = test: Induction of apoptosis in human HepG2 cells assessed as early apoptotic cells at 4 uM after 24 hrs by AnnexinV-FITC/PI-staining based flow cytometry (reference value: 0.5%); type: functional
HepG2 [17] = test: Induction of apoptosis in human HepG2 cells assessed as late apoptotic cells at 8 uM after 24 hrs by AnnexinV-FITC/PI-staining based flow cytometry (reference value: 4.5%); type: functional
HepG2 [18] = test: Induction of apoptosis in human HepG2 cells assessed as early apoptotic cells at 8 uM after 24 hrs by AnnexinV-FITC/PI-staining based flow cytometry (reference value: 0.5%); type: functional
HepG2 [19] = test: Induction of apoptosis in human HepG2 cells assessed as late apoptotic cells at 12 uM after 24 hrs by AnnexinV-FITC/PI-staining based flow cytometry (reference value: 4.5%); type: functional
HepG2 [20] = test: Induction of apoptosis in human HepG2 cells assessed as early apoptotic cells at 12 uM after 24 hrs by AnnexinV-FITC/PI-staining based flow cytometry (reference value: 0.5%); type: functional
HepG2 [21] = test: Induction of cell cycle arrest in human HepG2 cells assessed as accumulation at G1 phase at 2 uM after 72 hrs by PI-staining based flow cytometry (reference value: 66.9%); type: functional
HepG2 [22] = test: Induction of cell cycle arrest in human HepG2 cells assessed as accumulation at G2 phase at 2 uM after 72 hrs by PI-staining based flow cytometry (reference value: 19.2%); type: functional
HepG2 [23] = test: Induction of cell cycle arrest in human HepG2 cells assessed as accumulation at S phase at 2 uM after 72 hrs by PI-staining based flow cytometry (reference value: 13.9%); type: functional
HepG2 [24] = test: Induction of cell cycle arrest in human HepG2 cells assessed as accumulation at G1 phase at 4 uM after 72 hrs by PI-staining based flow cytometry (reference value: 66.9%); type: functional
HepG2 [25] = test: Induction of cell cycle arrest in human HepG2 cells assessed as accumulation at G2 phase at 4 uM after 72 hrs by PI-staining based flow cytometry (reference value: 19.2%); type: functional
HepG2 [26] = test: Induction of cell cycle arrest in human HepG2 cells assessed as accumulation at S phase at 4 uM after 72 hrs by PI-staining based flow cytometry (reference value: 13.9%); type: functional
HepG2 [27] = test: Induction of cell cycle arrest in human HepG2 cells assessed as accumulation at G1 phase at 8 uM after 72 hrs by PI-staining based flow cytometry (reference value: 66.9%); type: functional
HepG2 [28] = test: Induction of cell cycle arrest in human HepG2 cells assessed as accumulation at G2 phase at 8 uM after 72 hrs by PI-staining based flow cytometry (reference value: 19.2%); type: functional
HepG2 [29] = test: Induction of cell cycle arrest in human HepG2 cells assessed as accumulation at S phase at 8 uM after 72 hrs by PI-staining based flow cytometry (reference value: 13.9%); type: functional

C=C(C)[C@@H]1CC[C@]2(COC(=O)c3nc(C)c(C)nc3C)CC[C@]3(C)[C@H](CC[C@@H]4[C@@]5(C)CC[C@H](OC(=O)CN)C(C)(C)[C@@H]5CC[C@]43C)[C@@H]12
IC50 (HeLa): 4.91 µM | IC50 (HepG2 [1]): 4.07 µM | IC50 (BGC-823): 4.24 µM | IC50 (HT-29): 6.21 µM | IC50 (MDCK): 16.1 µM | Ratio IC50 [2]: 3.91 | mortality at 72 h, 4 µM [3]: 8.33% | Activity [4]: 0% | Activity [5]: 4140.09 um | Activity [6]: Non-Toxic | Activity [7]: Non-Toxic | Activity (HepG2 [8]): Active | Activity (HepG2 [9]): Active | Activity (HepG2 [10]): Active | Activity (HepG2 [11]): Active | Activity (HepG2 [12]): Active | Activity (HepG2 [13]): Active | Activity (HepG2 [14]): Active | Activity (HepG2 [15]): 15.4% | Activity (HepG2 [16]): 5.5% | Activity (HepG2 [17]): 19.2% | Activity (HepG2 [18]): 14.2% | Activity (HepG2 [19]): 21.4% | Activity (HepG2 [20]): 35.4% | Activity (HepG2 [21]): 76.8% | Activity (HepG2 [22]): 15.8% | Activity (HepG2 [23]): 7.3% | Activity (HepG2 [24]): 79.6% | Activity (HepG2 [25]): 14.9% | Activity (HepG2 [26]): 5.6% | Activity (HepG2 [27]): 81.5% | Activity (HepG2 [28]): 13.6% | Activity (HepG2 [29]): 4.9%
